# Test results taken from patent US12679836B2, “4H-pyrrolo[3,2-c]pyridin-4-one compounds” (Bayer Aktiengesellschaft, priority 2019, dated 2026).
# How the values were obtained:
# Ba/F3-EGFR-insSVD cells = Ba/F3-EGFR-insSVD cells (Homo sapiens, UniProt P00533, DUP768-770, cells depend on it); test: Ba/F3 cell survival assay (Cell Titer-Glo), EGFR-insSVD; format: cell-based; conditions: without IL-3, with 10 ng/mL EGF, 48 h; read-out: BA/F3 (insSVD) IC50
# In short: (§1)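 Ba/F3 cells stably expressing WT EGFR or EGFR-insSVD from retroviral transduction were grown without IL-3 on 10 ng/mL EGF. Cells were plated at 4000 cells/well, treated with compound for 48 h at 37° C, and viability was read by CellTiter-Glo luminescence.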
# Bub1 = target: T1, Bub1 (Homo sapiens, UniProt O43683); test: Bub1 TR-FRET high ATP kinase assay; format: biochemical; conditions: Bub1 high ATP (2 mM) IC50 [mol/l], 2 mM ATP
# T1 construct: catalytic domain of human Bub1 (amino acids 704-1085); His6 (N); made in house; host or cells: Hi5 insect cells
# T1 sequence (O43683 704-1085): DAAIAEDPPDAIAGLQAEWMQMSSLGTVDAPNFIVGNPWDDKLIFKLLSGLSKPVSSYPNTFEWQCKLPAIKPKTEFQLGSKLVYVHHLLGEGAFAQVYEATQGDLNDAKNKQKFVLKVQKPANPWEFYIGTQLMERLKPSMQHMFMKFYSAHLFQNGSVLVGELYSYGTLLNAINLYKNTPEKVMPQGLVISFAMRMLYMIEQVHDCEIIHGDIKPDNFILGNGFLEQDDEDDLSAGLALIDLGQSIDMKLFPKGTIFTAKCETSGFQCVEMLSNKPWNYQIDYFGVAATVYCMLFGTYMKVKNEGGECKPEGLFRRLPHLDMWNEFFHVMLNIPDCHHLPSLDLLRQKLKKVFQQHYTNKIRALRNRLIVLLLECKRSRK
# In short: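 Recombinant His6-tagged human Bub1 catalytic domain (aa 704-1085), from Hi5 insect cells, phosphorylating a biotinylated peptide substrate at high ATP concentration. TR-FRET read-out.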
# [1] = target: T2, EGFR with insertion of SVD between D770 and N771 (EGFR ins SVD) (Homo sapiens, UniProt P00533, DUP768-770); test: Exon20-Mutant-EGFR(D770_N771insSVD) kinase assay (TR-FRET); format: biochemical; conditions: 2 mM ATP, several values per example where printed
# T2 construct: made in house; host or cells: Sf9 insect cells (baculovirus)
# T2 sequence (P00533 with tags, fused parts or gaps DUP768-770): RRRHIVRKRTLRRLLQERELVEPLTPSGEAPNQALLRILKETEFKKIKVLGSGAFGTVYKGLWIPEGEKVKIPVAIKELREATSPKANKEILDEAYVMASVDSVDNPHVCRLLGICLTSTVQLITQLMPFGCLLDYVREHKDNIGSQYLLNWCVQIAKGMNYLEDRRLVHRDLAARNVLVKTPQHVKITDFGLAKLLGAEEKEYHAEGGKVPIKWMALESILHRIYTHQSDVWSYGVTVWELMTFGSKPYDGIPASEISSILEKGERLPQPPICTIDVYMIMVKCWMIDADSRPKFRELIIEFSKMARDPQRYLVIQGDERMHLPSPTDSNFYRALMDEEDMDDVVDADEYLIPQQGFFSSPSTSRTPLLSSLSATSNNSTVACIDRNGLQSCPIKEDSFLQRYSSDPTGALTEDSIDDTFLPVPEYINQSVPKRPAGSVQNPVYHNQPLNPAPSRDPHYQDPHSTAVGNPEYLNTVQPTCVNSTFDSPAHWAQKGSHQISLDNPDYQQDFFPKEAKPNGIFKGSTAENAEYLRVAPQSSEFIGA
# Ba/F3-EGFR-WT cells = Ba/F3-EGFR-WT cells (Homo sapiens, UniProt P00533); test: Ba/F3 cell survival assay (Cell Titer-Glo), WT EGFR; format: cell-based; conditions: without IL-3, with 10 ng/mL EGF, 48 h; read-out: BA/F3 (wild type) IC50
# Sequence of Ba/F3-EGFR-WT cells (P00533 whole entry, change not shown): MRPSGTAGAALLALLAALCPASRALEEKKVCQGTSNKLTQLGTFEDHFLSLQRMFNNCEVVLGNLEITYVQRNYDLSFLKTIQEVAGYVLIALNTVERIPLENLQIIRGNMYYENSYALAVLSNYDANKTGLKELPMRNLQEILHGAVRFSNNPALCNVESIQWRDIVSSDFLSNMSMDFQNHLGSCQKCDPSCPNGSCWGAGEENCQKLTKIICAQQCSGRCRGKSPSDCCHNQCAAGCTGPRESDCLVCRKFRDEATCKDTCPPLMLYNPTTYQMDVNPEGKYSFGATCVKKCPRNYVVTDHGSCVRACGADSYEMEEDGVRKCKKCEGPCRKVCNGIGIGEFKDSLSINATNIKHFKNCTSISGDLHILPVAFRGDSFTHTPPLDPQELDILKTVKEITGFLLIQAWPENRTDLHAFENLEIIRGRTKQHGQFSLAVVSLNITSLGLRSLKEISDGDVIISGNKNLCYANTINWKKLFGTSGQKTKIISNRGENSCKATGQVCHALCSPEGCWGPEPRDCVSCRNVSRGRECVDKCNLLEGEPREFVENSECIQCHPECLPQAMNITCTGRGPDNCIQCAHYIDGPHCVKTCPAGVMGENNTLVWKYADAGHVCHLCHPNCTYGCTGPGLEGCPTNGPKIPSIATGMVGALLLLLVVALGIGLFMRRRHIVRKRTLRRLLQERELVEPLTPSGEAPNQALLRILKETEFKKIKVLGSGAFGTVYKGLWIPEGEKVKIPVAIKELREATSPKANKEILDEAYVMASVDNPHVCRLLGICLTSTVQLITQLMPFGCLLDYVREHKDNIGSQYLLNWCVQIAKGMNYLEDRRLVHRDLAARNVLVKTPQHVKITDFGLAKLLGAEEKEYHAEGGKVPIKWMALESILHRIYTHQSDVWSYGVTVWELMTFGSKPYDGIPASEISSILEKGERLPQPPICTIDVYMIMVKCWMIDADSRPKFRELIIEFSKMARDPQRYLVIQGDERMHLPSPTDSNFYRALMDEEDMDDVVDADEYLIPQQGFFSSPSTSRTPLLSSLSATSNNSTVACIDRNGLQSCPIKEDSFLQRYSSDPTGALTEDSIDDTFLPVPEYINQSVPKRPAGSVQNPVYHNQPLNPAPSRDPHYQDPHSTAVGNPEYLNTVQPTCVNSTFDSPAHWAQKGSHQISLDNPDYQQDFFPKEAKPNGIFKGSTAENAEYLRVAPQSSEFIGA
# In short: as §1
# Sequence of Ba/F3-EGFR-insSVD cells (P00533 with tags, fused parts or gaps DUP768-770): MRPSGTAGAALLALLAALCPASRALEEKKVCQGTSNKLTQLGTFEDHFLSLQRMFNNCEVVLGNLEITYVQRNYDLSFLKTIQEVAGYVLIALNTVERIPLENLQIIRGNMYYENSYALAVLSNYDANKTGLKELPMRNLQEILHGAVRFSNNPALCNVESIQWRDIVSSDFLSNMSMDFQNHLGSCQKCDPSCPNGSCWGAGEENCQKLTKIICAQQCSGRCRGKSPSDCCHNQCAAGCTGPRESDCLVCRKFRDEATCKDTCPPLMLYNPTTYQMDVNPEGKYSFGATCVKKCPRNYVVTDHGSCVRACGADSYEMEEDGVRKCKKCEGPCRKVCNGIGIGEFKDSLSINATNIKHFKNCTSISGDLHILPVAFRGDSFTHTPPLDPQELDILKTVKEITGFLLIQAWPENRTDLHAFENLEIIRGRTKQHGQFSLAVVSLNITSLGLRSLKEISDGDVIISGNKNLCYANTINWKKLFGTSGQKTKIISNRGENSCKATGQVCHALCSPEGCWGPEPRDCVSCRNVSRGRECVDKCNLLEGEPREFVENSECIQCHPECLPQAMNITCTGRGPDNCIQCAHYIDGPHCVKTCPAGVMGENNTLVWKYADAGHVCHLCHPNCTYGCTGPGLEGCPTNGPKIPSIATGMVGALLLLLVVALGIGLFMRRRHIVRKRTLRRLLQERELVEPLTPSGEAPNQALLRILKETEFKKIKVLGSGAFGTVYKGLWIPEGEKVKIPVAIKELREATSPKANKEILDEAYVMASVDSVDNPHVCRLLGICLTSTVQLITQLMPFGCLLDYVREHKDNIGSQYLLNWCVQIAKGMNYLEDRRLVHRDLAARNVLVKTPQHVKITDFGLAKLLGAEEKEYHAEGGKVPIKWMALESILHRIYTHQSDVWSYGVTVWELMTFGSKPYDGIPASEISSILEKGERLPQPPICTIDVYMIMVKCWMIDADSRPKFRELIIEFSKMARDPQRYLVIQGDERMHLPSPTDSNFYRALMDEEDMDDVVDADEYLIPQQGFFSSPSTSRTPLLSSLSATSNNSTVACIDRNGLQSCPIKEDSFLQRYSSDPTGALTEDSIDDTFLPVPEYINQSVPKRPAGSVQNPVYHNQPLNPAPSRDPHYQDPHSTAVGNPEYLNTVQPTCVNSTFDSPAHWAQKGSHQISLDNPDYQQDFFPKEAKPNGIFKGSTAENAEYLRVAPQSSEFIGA
SMILES,GI50 (Ba/F3-EGFR-insSVD cells),IC50 (Bub1),mutEGFR (D770_N771insSVD) kinase assay IC50 [1],GI50 (Ba/F3-EGFR-WT cells)
"COc1c(Cl)cccc1Nc1c(-c2ccncc2OCC2COCCO2)[nH]c2c1C(=O)NCC2 (centres unmarked) [Example 1, 3-(3-chloro-2-methoxyanilino)-2-{3-[(1,4-dioxan-2-yl)methoxy]pyridin-4-yl}-1,5,6,7-tetrahydro-4H-pyrrolo[3,2-c]pyridin-4-one]",9.8 nM,3360 nM,0.159 nM,366 nM
"COc1c(F)cccc1Nc1c(-c2ccncc2OCC2COCCO2)[nH]c2c1C(=O)NCC2 (centres unmarked) [Example 4, 2-{3-[(1,4-dioxan-2-yl)methoxy]pyridin-4-yl}-3-(3-fluoro-2-methoxyanilino)-1,5,6,7-tetrahydro-4H-pyrrolo[3,2-c]pyridin-4-one]",19.5 nM,11300 nM,0.256 nM,452 nM
"O=C1NCCc2[nH]c(-c3ccncc3OCC3COCCO3)c(Nc3cccc(Cl)c3Cl)c21 (centres unmarked) [Example 7, 3-(2,3-dichloroanilino)-2-{3-[(1,4-dioxan-2-yl)methoxy]pyridin-4-yl}-1,5,6,7-tetrahydro-4H-pyrrolo[3,2-c]pyridin-4-one]",18 nM,10600 nM,0.137 nM,292 nM
"Cc1c(Cl)cccc1Nc1c(-c2ccncc2OCC2COCCO2)[nH]c2c1C(=O)NCC2 (centres unmarked) [Example 10, 3-(3-chloro-2-methylanilino)-2-{3-[(1,4-dioxan-2-yl)methoxy]pyridin-4-yl}-1,5,6,7-tetrahydro-4H-pyrrolo[3,2-c]pyridin-4-one]",11.1 nM,1780 nM,0.669 nM,496 nM
"COc1c(Cl)cccc1Nc1c(-c2ccncc2OC[C@H]2COCCN2C)[nH]c2c1C(=O)NCC2 [Example 11, 3-(3-chloro-2-methoxyanilino)-2-(3-{[(3R)-4-methylmorpholin-3-yl]methoxy}pyridin-4-yl)-1,5,6,7-tetrahydro-4H-pyrrolo[3,2-c]pyridin-4-one]",18.7 nM,4330 nM,0.286 nM,701 nM
"COc1c(F)cccc1Nc1c(-c2ccncc2OCC2CN(C)CCO2)[nH]c2c1C(=O)NCC2 (centres unmarked) [Example 12, 3-(3-fluoro-2-methoxyanilino)-2-{3-[(4-methylmorpholin-2-yl)methoxy]pyridin-4-yl}-1,5,6,7-tetrahydro-4H-pyrrolo[3,2-c]pyridin-4-one]",22.8 nM,> 20000 nM,0.0794 nM,574 nM
"COc1c(Cl)cccc1Nc1c(-c2ccncc2OCC2CN(C)CCO2)[nH]c2c1C(=O)NCC2 (centres unmarked) [Example 15, 3-(3-chloro-2-methoxyanilino)-2-{3-[(4-methylmorpholin-2-yl)methoxy]pyridin-4-yl}-1,5,6,7-tetrahydro-4H-pyrrolo[3,2-c]pyridin-4-one]",15.3 nM,> 20000 nM,0.151 nM,426 nM
"COc1c(Cl)cc(F)cc1Nc1c(-c2ccncc2OCC2CN(C)CCO2)[nH]c2c1C(=O)NCC2 (centres unmarked) [Example 18, 3-(3-chloro-5-fluoro-2-methoxyanilino)-2-(3-{[4-methylmorpholin-2-yl]methoxy}pyridin-4-yl)-1,5,6,7-tetrahydro-4H-pyrrolo[3,2-c]pyridin-4-one]",27.9 nM,> 20000 nM,0.147 nM,579 nM
"COc1c(Cl)cc(F)cc1Nc1c(-c2ccncc2OCC2COCCO2)[nH]c2c1C(=O)NCC2 (centres unmarked) [Example 19, 3-(3-chloro-5-fluoro-2-methoxyanilino)-2-(3-{[1,4-dioxan-2-yl]methoxy}pyridin-4-yl)-1,5,6,7-tetrahydro-4H-pyrrolo[3,2-c]pyridin-4-one]",29.1 nM,11400 nM,0.113 nM,532 nM
"COc1c(F)cccc1Nc1c(-c2ccncc2OC[C@@H]2CN(CC(F)F)CCO2)[nH]c2c1C(=O)NCC2 [Example 22, 2-(3-{[(2S)-4-(2,2-difluoroethyl)morpholin-2-yl]methoxy}pyridin-4-yl)-3-(3-fluoro-2-methoxyanilino)-1,5,6,7-tetrahydro-4H-pyrrolo[3,2-c]pyridin-4-one]",41.9 nM,> 20000 nM,0.153 nM,544 nM
"COc1c(F)cccc1Nc1c(-c2ccncc2OC[C@@H]2CN(CC(F)(F)F)CCO2)[nH]c2c1C(=O)NCC2 [Example 23, 3-(3-fluoro-2-methoxyanilino)-2-(3-{[(2S)-4-(2,2,2-trifluoroethyl)morpholin-2-yl]methoxy}pyridin-4-yl)-1,5,6,7-tetrahydro-4H-pyrrolo[3,2-c]pyridin-4-one]",71 nM,> 20000 nM,0.169 nM,648 nM
"COc1c(Cl)cccc1Nc1c(-c2ccncc2OCCC2COCCO2)[nH]c2c1C(=O)NCC2 (centres unmarked) [Example 24, 3-(3-chloro-2-methoxyanilino)-2-{3-[2-(4-dioxan-2-yl)ethoxy]pyridin-4-yl}-1,5,6,7-tetrahydro-4H-pyrrolo[3,2-c]pyridin-4-one]",34.6 nM,1940 nM,0.261 nM,444 nM
"COc1c(Cl)cc(F)cc1Nc1c(-c2ccncc2OC[C@@H]2CN(C)CCO2)[nH]c2c1C(=O)NCC2 [Example 27, 3-(3-chloro-5-fluoro-2-methoxyanilino)-2-(3-{[(2S)-4-methylmorpholin-2-yl]methoxy}pyridin-4-yl)-1,5,6,7-tetrahydro-4H-pyrrolo[3,2-c]pyridin-4-one]",16.9 nM,> 20000 nM,0.118 nM,502 nM
"COc1c(Cl)cc(F)cc1Nc1c(-c2ccncc2OC[C@@H]2CN(CC(F)(F)F)CCO2)[nH]c2c1C(=O)NCC2 [Example 28, 3-(3-chloro-5-fluoro-2-methoxyanilino)-2-(3-{[(2S)-4-(2,2,2-trifluoroethyl)morpholin-2-yl]methoxy}pyridin-4-yl)-1,5,6,7-tetrahydro-4H-pyrrolo[3,2-c]pyridin-4-one]",126 nM,> 20000 nM,0.249 nM,1240 nM
"COc1c(F)cccc1Nc1c(-c2ccncc2OC[C@H]2COCCN2C)[nH]c2c1C(=O)NCC2 [Example 37, 3-(3-fluoro-2-methoxyanilino)-2-(3-{[(3R)-4-methylmorpholin-3-yl]methoxy}pyridin-4-yl)-1,5,6,7-tetrahydro-4H-pyrrolo[3,2-c]pyridin-4-one]",35.7 nM,19000 nM,0.4 nM,348 nM
"Cc1c(F)cccc1Nc1c(-c2ccncc2OCC2COC(C)(C)CO2)[nH]c2c1C(=O)NCC2 (centres unmarked) [Example 38, 2-[3-[(5,5-dimethyl-1,4-dioxan-2-yl)methoxy]-4-pyridyl]-3-(3-fluoro-2-methyl-anilino)-1,5,6,7-tetrahydropyrrolo[3,2-c]pyridin-4-one]",29.3 nM,> 5710 nM,0.119 nM,419 nM
"O=C1NCCc2[nH]c(-c3ccncc3OCC3COCCO3)c(Nc3cccc(F)c3CC(F)F)c21 (centres unmarked) [Example 40, 3-[2-(2,2-difluoroethyl)-3-fluoro-anilino]-2-[3-(1,4-dioxan-2-ylmethoxy)-4-pyridyl]-1,5,6,7-tetrahydropyrrolo[3,2-c]pyridin-4-one]",119 nM,8620 nM,0.115 nM,867 nM
"CN1CCO[C@H](COc2cnccc2-c2[nH]c3c(c2Nc2cccc(F)c2CC(F)F)C(=O)NCC3)C1 [Example 41, 3-[2-(2,2-difluoroethyl)-3-fluoroanilino]-2-(3-{[(2S)-4-methylmorpholin-2-yl]methoxy}pyridin-4-yl)-1,5,6,7-tetrahydro-4H-pyrrolo[3,2-c]pyridin-4-one]",77.5 nM,> 20000 nM,0.291 nM,695 nM
"Cc1c(Cl)cccc1Nc1c(-c2ccncc2OC[C@H]2COCCN2C)[nH]c2c1C(=O)NCC2 [Example 43, 3-(3-chloro-2-methylanilino)-2-(3-{[(3R)-4-methylmorpholin-3-yl]methoxy}pyridin-4-yl)-1,5,6,7-tetrahydro-4H-pyrrolo[3,2-c]pyridin-4-one]",60.5 nM,2410 nM,0.225 nM,1250 nM
"CCc1c(Cl)cccc1Nc1c(-c2ccncc2OCC2COCCO2)[nH]c2c1C(=O)NCC2 (centres unmarked) [Example 52, 3-(3-chloro-2-ethyl-anilino)-2-[3-(1,4-dioxan-2-ylmethoxy)-4-pyridyl]-1,5,6,7-tetrahydropyrrolo[3,2-c]pyridin-4-one]",13.4 nM,729 nM,0.226 nM,547 nM
